Drawing on DBAASP, this text covers MIC for nine compounds.

Some test systems named below: Escherichia coli D31; Streptococcus gordonii; Vibrio cholerae non-O139; Vibrio cholerae non-O1; Bacillus cereus AS1.126; Escherichia coli AS1.349.
What all share (test): ≥ marks a high value that may be exact or a test limit, other limits are often not marked, values filed in µg/mL are converted to µM
Test [1] has as its system Staphylococcus aureus BCRC 10780.
For test [2], the system named is Streptococcus pneumoniae BCRC 10794.
The subject of test [3] is Candida albicans ATCC 14053.
Test [4] concerns Klebsiella pneumoniae ATCC 13883.
Test [5] has as its system Pseudomonas aeruginosa ATCC 27853.
For test [6], the system named is Staphylococcus aureus ATCC 25923.
Test [7] deals with Bacillus subtilis ATCC 11774.
The subject of test [8] is Enterococcus faecalis FA2-2.
For test [9], the system named is Enterococcus faecalis OG1X.
The test system of test [10] is Escherichia coli ATCC 12014.
Test [11] deals with Porphyromonas gingivalis ATCC 33277.
Test [12] has as its system Pseudomonas aeruginosa ATCC 10145.
For test [13], the system named is Salmonella enterica subsp. enterica serovar Typhimurium ATCC BAA-215.
The subject of test [14] is Staphylococcus aureus ATCC 6538.
Test [15] concerns Staphylococcus aureus ATCC 25023.
Test [16] relates to Enterococcus faecalis ATCC 29212.
For test [17], the system named is Escherichia coli ATCC 25922.
In test [18] the test system is Staphylococcus aureus ATCC 29213.
Test [19] relates to Staphylococcus epidermidis PIA 8400.
In test [20] the test system is Escherichia coli ATCC 11775.
Test [21] relates to Escherichia coli ATCC 43827.
In test [22] the test system is Salmonella enterica subsp. enterica serovar Typhi DMST 22842.
For test [23], the system named is Staphylococcus epidermidis ATCC 12228.
In test [24] the test system is Cronobacter sakazakii DPC 6440.
Test [25] has as its system Listeria monocytogenes LO28.
For test [26], the system named is Enterobacter cloacae CGMCC 1.58.
In test [27] the test system is Enterococcus faecalis CGMCC 1.595.
Test [28] relates to Enterococcus faecium CGMCC 1.2334.
The test system of test [29] is Klebsiella aerogenes CGMCC 1.876.
The test system of test [30] is Klebsiella pneumoniae subsp. pneumoniae CGMCC 1.176.
The subject of test [31] is Lactococcus lactis AS1.1690.
Test [32] deals with Pseudomonas aeruginosa CGMCC 1.860.
Test [33] concerns Staphylococcus aureus AS1.72.

SMILES strings stand for the structures. Values after ≈ are worked out from the molar mass of the structure shown. Values joined by “and” are separate entries in the source; they are usually repeats but may differ in a detail not shown here. Equal entries are not always repeated.

As for `CC[C@H](C)[C@H](NC(=O)[C@H](CCSC)NC(=O)[C@H](CCCCN)NC(=O)CNC(=O)[C@H](C)NC(=O)[C@H](Cc1cnc[nH]1)NC(=O)[C@H](Cc1ccccc1)NC(=O)[C@H](CC(C)C)NC(C)=O)C(=O)N[C@@H](Cc1cnc[nH]1)C(N)=O` [LFHAGKMIH], the minimal inhibitory concentration (MIC) in test [1] and in [2] was ≥ 94.9 µM each time.
`CC[C@H](C)[C@@H]1NC(=O)CNC(=O)[C@H](CCCCN)NC(=O)[C@H](CC(N)=O)NC(=O)[C@H](CCCNC(=N)N)NC(=O)[C@H](C(C)C)NC(=O)[C@@H](NC(=O)[C@H](CO)NC(=O)[C@@H](NC(=O)[C@@H]2CCCN2C(=O)[C@@H](N)CC(N)=O)C(C)C)CSSC[C@@H]2NC(=O)[C@H](CCCCN)NC(=O)[C@H](C(C)C)NC(=O)[C@H](C)NC(=O)[C@H](CCCNC(=N)N)NC(=O)CNC(=O)[C@H](C(C)C)NC(=O)[C@@H]3CSSC[C@H](NC1=O)C(=O)N[C@@H](C(C)C)C(=O)N1CCC[C@H]1C(=O)N[C@@H]([C@@H](C)CC)C(=O)N[C@@H](CCCNC(=N)N)C(=O)N[C@@H](CSSC[C@@H](C(=O)N[C@@H](CCCNC(=N)N)C(=O)N[C@@H](CCCCN)C(=O)N[C@@H](CCCCN)C(=O)O)NC2=O)C(=O)N1CCC[C@H]1C(=O)NCC(=O)N[C@@H](CO)C(=O)N[C@@H](CCSC)C(=O)N[C@@H](CCCCN)C(=O)N[C@@H](CCC(N)=O)C(=O)N[C@@H]([C@@H](C)CC)C(=O)NCC(=O)N[C@@H]([C@@H](C)O)C(=O)N3` [NPVSCVRNKGICVPIRCPGSMKQIGTCVGRAVKCCRKK]: the minimum inhibitory concentration (MIC) (usually the least concentration at which growth counts as inhibited) in test [3] worked out at 2.07 µM (≈ 8.47 µg/mL); with Escherichia coli D31, 4.23 µM (≈ 17.3 µg/mL); in [4], 4.23 µM (≈ 17.3 µg/mL); in test [5] it was 8.64 µM (≈ 35.3 µg/mL); in test [6], 8.64 µM (≈ 35.3 µg/mL).
Regarding `CC[C@H](C)[C@H](NC(=O)[C@H](CCCCN)NC(=O)[C@H](CCC(=O)O)NC(=O)[C@H](CCCCN)NC(=O)[C@H](CO)NC(=O)[C@H](CCCCN)NC(=O)[C@@H](N)CCCN=C(N)N)C(=O)NCC(=O)N[C@@H](CCCCN)C(=O)N[C@@H](CCC(=O)O)C(=O)N[C@@H](Cc1ccccc1)C(=O)N[C@@H](CCCCN)C(=O)N[C@@H](CCCN=C(N)N)C(=O)N[C@H](C(=O)N[C@H](C(=O)N[C@@H](CCC(N)=O)C(=O)N[C@@H](CCCN=C(N)N)C(=O)N[C@H](C(=O)N[C@@H](CCCCN)C(=O)N[C@@H](CC(=O)O)C(=O)N[C@@H](Cc1ccccc1)C(=O)O)[C@@H](C)CC)C(C)C)[C@@H](C)CC` [RKSKEKIGKEFKRIVQRIKDF], the MIC in test [7] is 0.038 µM (≈ 0.1 µg/mL); in test [8], 4.75 µM (≈ 12.5 µg/mL); in test [9], 19 µM (≈ 50 µg/mL); in [10], 0.152 µM (≈ 0.4 µg/mL); in test [11], 4.75 µM (≈ 12.5 µg/mL); in test [12], ≥ 38 µM. Besides, the MIC in [13] is 19 µM (≈ 50 µg/mL); in test [14], 19 µM (≈ 50 µg/mL); with Streptococcus gordonii, 2.37 µM (≈ 6.25 µg/mL).
In [15], `CC(C)C[C@H](NC(=O)[C@H](CC(C)C)NC(=O)[C@H](CC(C)C)NC(=O)[C@H](CC(C)C)NC(=O)[C@H](CC(C)C)NC(=O)[C@H](CCCCN)NC(=O)[C@H](CC(C)C)NC(=O)[C@@H](N)CCCN=C(N)N)C(=O)N[C@@H](CCCN=C(N)N)C(=O)N[C@@H](Cc1c[nH]c2ccccc12)C(N)=O` [RLKLLLLLRW] showed an MIC of 3.02 µM (≈ 4 µg/mL).
For the compound `CC[C@H](C)[C@H](NC(=O)[C@H](CCCCN)NC(=O)[C@@H](NC(=O)[C@H](CCCN=C(N)N)NC(=O)[C@H](CCCN=C(N)N)NC(=O)[C@@H](N)CCCN=C(N)N)[C@@H](C)CC)C(=O)N[C@@H](CCCN=C(N)N)C(=O)N[C@@H](Cc1c[nH]c2ccccc12)C(=O)N[C@@H](Cc1ccc(O)cc1)C(N)=O` [RRRIKIRWY], the minimal inhibitory concentration (MIC) in [16] was 186 µM (≈ 251 µg/mL); in test [17], 23 µM (≈ 31 µg/mL); in [5], 23 µM and 46.8 µM; in [18], 23 µM (≈ 31 µg/mL); in [19], 23 µM and 11.9 µM.
On to `NC(=O)CC[C@H](NC(=O)[C@H](Cc1c[nH]c2ccccc12)NC(=O)[C@H](CCCN=C(N)N)NC(=O)[C@@H](N)CCCN=C(N)N)C(=O)N[C@@H](Cc1c[nH]c2ccccc12)C(=O)N[C@@H](CCCN=C(N)N)C(=O)O` [RRWQWR], for which the MIC in [16] worked out at 44 µM (≈ 43.4 µg/mL); in test [20], 22 µM (≈ 21.7 µg/mL); in test [17], 22 µM (≈ 21.7 µg/mL); in test [21] it was 5 µM (≈ 4.94 µg/mL).
As for `NC(=O)[C@H](Cc1c[nH]c2ccccc12)NC(=O)[C@H](Cc1c[nH]c2ccccc12)NC(=O)[C@H](CCCN=C(N)N)NC(=O)[C@H](CCCN=C(N)N)NC(=O)[C@H](Cc1c[nH]c2ccccc12)NC(=O)[C@H](Cc1c[nH]c2ccccc12)NC(=O)[C@H](CCCN=C(N)N)NC(=O)[C@H](Cc1c[nH]c2ccccc12)NC(=O)[C@H](Cc1c[nH]c2ccccc12)NC(=O)[C@@H](N)CCCN=C(N)N` [RWWRWWRRWW], the MIC in test [17] is > 51.7 µM; in [5] it was 26.1 µM (≈ 46 µg/mL); in [22] it was ≥ 51.7 µM; in test [6], > 51.7 µM; in test [23], > 51.7 µM; against Vibrio cholerae non-O139 it was 13.1 µM (≈ 23 µg/mL). The minimal inhibitory concentration (MIC) against Vibrio cholerae non-O1 was determined as 13.1 µM (≈ 23 µg/mL).
As to `CC[C@H](C)[C@H](NC(=O)[C@@H](NC(=O)[C@H](CCCCN)NC(=O)[C@@H](NC(=O)[C@H](CCCCN)NC(=O)[C@@H]1CCCN1C(=O)[C@H](CCC(N)=O)NC(=O)[C@H](C)NC(=O)[C@@H](N)Cc1c[nH]c2ccccc12)[C@@H](C)O)C(C)C)C(=O)N1CCC[C@H]1C(=O)N[C@@H](Cc1ccc(O)cc1)C(=O)N[C@H](C(=O)N[C@@H](CCCN=C(N)N)C(=O)N[C@@H](Cc1ccc(O)cc1)C(=O)N[C@@H](CC(C)C)C(=O)O)C(C)C` [WAQPKTKVIPYVRYL], the minimum inhibitory concentration (MIC) in [24] and in [25] was ≥ 39.1 µM each time.
Regarding `NC(N)=NCCC[C@H](NC(=O)[C@H](Cc1cnc[nH]1)NC(=O)[C@H](Cc1c[nH]c2ccccc12)NC(=O)[C@H](Cc1ccccc1)NC(=O)[C@H](CCCN=C(N)N)NC(=O)[C@H](CCCN=C(N)N)NC(=O)[C@@H](N)Cc1c[nH]c2ccccc12)C(=O)O` [WRRFWHR], the minimal inhibitory concentration (MIC) in the test on Bacillus cereus AS1.126 was 25 µM (≈ 28.6 µg/mL); in test [26], ≥ 100 µM; in test [27] it was ≥ 50 µM; in [28] it was 25 µM (≈ 28.6 µg/mL); with Escherichia coli AS1.349 it was 25 µM (≈ 28.6 µg/mL); in test [29], ≥ 100 µM. Further, the minimum inhibitory concentration (MIC) in test [30] was ≥ 100 µM; in test [31], ≥ 50 µM; in test [32], 25 µM (≈ 28.6 µg/mL); in [33] it was 25 µM (≈ 28.6 µg/mL).
